# Results published in patent publication US5559101A, “L-ribofuranosyl nucleosides” (priority 1994, dated 1996).
# Read-outs that look alike come from different tables or passages of the source.
# Assays:
# [1] = test system: OM-1 (colon); test: Radiometric growth inhibition of tumor cells, OM-1; format: cell-based, human; set-up: % SURVIVAL TUMOR: concentration or dose not given beside the values; settings: for IC50: concentration required to kill 50%
# Description: (§1) CELL LINES: Eight different established human cell lines CALU (lung), COLO320 (colon), H578St (breast), HT-29 (colon), MCF-7 (breast), OM-1 (colon), SKLU (lung) and SKMES(lung), and two control cell lines (bone marrow and/or fibroblast cells) were utilized. All cell lines were obtained from the Tumor Cloning Laboratory, Institute for Drug Development, Cancer Therapy and Research Center, San Antonio, Tex. All cell lines grew as monolayers in the appropriate culture medium supplemented with heat-inactivated calf serum. All reagents were obtained from Grand Island Biological Co., Grand Island, N.Y.
# (§2) The iv formulations of the compounds of the present invention were prepared with sterile buffered saline and stored at -70° C. until required for testing.
# (§3) Following trypsinization, tumor cells were suspended in tissue culture medium and exposed to the antitumor agents continuously at three different concentrations: 10, 1 and 0.1 μg/ml.
# (§4) RADIOMETRIC MEASUREMENT OF GROWTH INHIBITION: Growth inhibition was assessed with the BACTEC System 460 (Johnston Laboratories, Towson, Md.) after addition of the antitumor agent to the cell in the respective growth medium containing ^14 C-glucose at a final concentration of 2 μCi/ml.
# (§5) Two mls of the tumor cell suspension containing radioactive glucose were seeded into sterile, disposable 15 ml vials by injection through self-sealing rubber-aluminum caps. […] The seeded vials were then incubated at 37° C. Measurement of the release of ^14 CO2 resulting from the metabolism of ^14 C-glucose were performed on days 6, 9, 12 and 15 in the BACTEC instrument. This instrument flushes the ^14 CO2 containing air out of the vials into an ionization chamber that converts dpm to growth index values. […] Each data point represents triplicate values.
# (§6) All compounds were dosed on an equimilimolar basis.
# [2] = test system: SKLU (lung); test: Radiometric growth inhibition of tumor cells, SKLU; format: cell-based, human; set-up: % SURVIVAL TUMOR: concentration or dose not given beside the values
# Description: as §1, §2, §3, §4, §5, §6
# [3] = test system: MCF-7 (breast); test: Radiometric growth inhibition of tumor cells, MCF-7; format: cell-based, human; set-up: % SURVIVAL TUMOR: concentration or dose not given beside the values; settings: MCF-7; for IC50: concentration required to kill 50%; for % SURVIVAL TUMOR: continuous exposure
# Description: as §1, §2, §3, §4, §5, §6
# [4] = test system: HT29 (colon); test: Radiometric growth inhibition of tumor cells, HT29; format: cell-based, human; set-up: % SURVIVAL TUMOR: concentration or dose not given beside the values; settings: for IC50: concentration required to kill 50%
# Description: as §1, §2, §3, §4, §5, §6
# [5] = In vitro survival of bone marrow control cells (radiometric BACTEC); format: cell-based; set-up: concentration or dose not given beside the values
# Description: as §1, §2, §3, §4, §5, §6
# [6] = test system: COLO320 (colon); test: Radiometric growth inhibition of tumor cells, COLO320; format: cell-based, human; settings: for IC50: Homo sapiens, COLO 320
# Description: as §1, §2, §3, §4, §5, §6
# [7] = test system: HS578T (breast); test: Radiometric growth inhibition of tumor cells, HS578T; format: cell-based, human; settings: HS578T
# Description: as §1, §2, §3, §4, §5, §6
# [8] = test system: CALU (lung); test: Radiometric growth inhibition of tumor cells, CALU; format: cell-based, human
# Description: as §1, §2, §3, §4, §5, §6
# [9] = Homo sapiens, OM-1, read-out: IC 50
# [10] = Homo sapiens, SKLU, concentration required to kill 50%, read-out: IC 50
# [11] = Homo sapiens, MCF7, read-out: IC 50
# [12] = COLO320, concentration required to kill 50%, read-out: IC 50
# [13] = human, colo320 colon tumor cells
# [14] = Homo sapiens, HT-29, HT29, read-out: IC 50
# [15] = bone marrow control cells, continuous exposure, read-out: % SURVIVAL BONE MARROW
Compound,"IC50 [1, 9]","% SURVIVAL TUMOR ([1]; human, om-1 colon tumor cells)",viability ([5]; bone marrow cells),"IC50 [2, 10]","% SURVIVAL TUMOR ([1]; OM-1, continuous exposure)","viability [5, 15]","% SURVIVAL TUMOR ([2]; SKLU, continuous exposure)",other results
2'-Deoxy-β-L-5-fluorouridine,–,–,–,–,–,–,–,"IC50 ([1]; OM-1): 62.9; IC50 ([2]; SKLU, concentration required to kill 50%): 32.5; IC50 [3]: 16.6; IC50 ([4]; HT29): 85.2"
"Nc1ncnc2c1ncn2[C@H]1O[C@@H](CO)[C@H](O)[C@@H]1O [β-L-ribofuranosyl adenine, 9-β-L-Ribofuranosyladenine]",4.23 µg/mL,50.9%,91.2%,–,–,–,–,–
O=c1[nH]c(=O)n([C@@H]2C[C@@H](O)[C@H](CO)O2)cc1F [2'-Deoxy-β-L-5-fluorouridine],56.1 µg/mL,85.2%,109%,59.9 µg/mL,–,–,–,"% SURVIVAL TUMOR ([2]; human, sklu lung tumor cells): 86.2%; IC50 [3, 11]: 60.7 µg/mL; % SURVIVAL TUMOR [3]: 86.9%; IC50 [6, 12]: 6.56 µg/mL; % SURVIVAL TUMOR [6, 13]: 19.6%; % SURVIVAL TUMOR ([4]; HT29, continuous exposure): 42.5%; IC50 [4, 14]: 8.46 µg/mL"
"NC1=N[C@@H]2O[C@@H](CO)[C@H](O)[C@@H]2O1 [2-Amino-α-L-ribofurano[1',2':4,5]oxazoline]",0.026 µg/mL,–,–,–,2.6%,115%,–,–
"Nc1nc(S)c2ncn([C@H]3O[C@@H](CO)[C@H](O)[C@@H]3O)c2n1 [β-L-ribofuranosyl-6-thioguanine, 9-β-L-Ribofuranosyl-6-thioguanine]",42.7 µg/mL,83.1%,97.4%,8.7 µg/mL,–,–,–,"% SURVIVAL TUMOR ([7]; continuous exposure): 66.6%; IC50 ([7]; Homo sapiens, Hs-578T, concentration required to kill 50%, read-out: IC 50): 17.1 µg/mL; % SURVIVAL TUMOR ([2]; human, sklu lung tumor cells): 45.1%"
"O=c1[nH]c(=S)ccn1[C@@H]1C[C@@H](O)[C@H](CO)O1 [2'-β-L-deoxy ribofuranosyl-4-thiouracil, 2'-Deoxy-β-L-4-thiouridine]",34.3 µg/mL,–,–,> 10 µg/mL,82.3%,98.2%,79.4%,–
"O=c1ccn([C@@H]2O[C@@H](CO)[C@H](O)[C@@H]2O)c(=O)[nH]1 [α-L-ribofuranosyl-uracil, 1-α-L-Ribofuranosyluracil]",–,–,96.6%,–,–,–,–,"IC50 ([8]; Homo sapiens, CALU, concentration required to kill 50%, read-out: IC 50): > 10 µg/mL; % SURVIVAL TUMOR ([8]; human, calu lung tumor cells): 89.1%"
"O=c1[nH]c(=O)n([C@@H]2O[C@@H](CO)[C@H](O)[C@@H]2O)cc1F [α-L-ribofuranosyl-5-fluorouracil, 1-α-L-ribofuranosyl-5-fluorouracil]",0.87 µg/mL,–,–,43.4 µg/mL,0.4%,94.6%,71%,–
"Cc1cn([C@@H]2C[C@@H](O)[C@H](CO)O2)c(=O)[nH]c1=O [2'-β-L-deoxy ribofuranosyl thymine, 2'-Deoxy-β-L-thymidine]",6.5 µg/mL,37.6%,159%,38.2 µg/mL,–,–,–,"% SURVIVAL TUMOR ([2]; human, sklu lung tumor cells): 72.4%; IC50 [6, 12]: 57.4 µg/mL; % SURVIVAL TUMOR [6, 13]: 67.0%; IC50 [4, 14]: 30.4 µg/mL; % SURVIVAL TUMOR ([4]; human, ht29 colon tumor cells): 72.2%"
"Nc1ccn([C@@H]2O[C@@H](CO)[C@H](O)[C@@H]2O)c(=O)n1 [α-L-ribofuranosyl cytosine, 1-α-L-Ribofuranosylcytosine]",–,–,–,–,–,120%,88.8%,"IC50 ([2]; Homo sapiens): 240 µg/mL; % SURVIVAL TUMOR ([6]; COLO320, continuous exposure): 82.3%; IC50 [6]: 34.9 µg/mL"
"O=C(OC[C@@H]1O[C@H](n2ccc(=S)[nH]c2=O)C[C@H]1OC(=O)c1ccccc1)c1ccccc1 [3',5'-Di-O-benzoyl-2'deoxy-4-thio β-L-uridine]",0.98 µg/mL,–,–,88.7 µg/mL,35.7%,102%,77.7%,"IC50 [3, 11]: > 10 µg/mL; % SURVIVAL TUMOR [3]: 84.5%"
